# Test results taken from patent US20220127297A1, “Novel Antibacterial 3"-Derivatives Of 4,6-Disubstituted 2,5-Dideoxystreptamine Aminoglycoside Antibiotics” (AGILeBiotics B.V., priority 2018, published 2022).
# Test system: Enterobacter cloacae 3MRGN (clinical bronchial aspirate isolate)
# Experiment: MIC 50, broth micro-dilution, clinical isolate
# Type: cell-based
# Conditions: E. Cloacae clinical isolate
# Source text: 3.2 Against Selected Bacteria of the ESKAPE Panel and Enterococcus faecalis (DSM Strains)
# Tested reference compounds. Amikacin sulfate (Cat. No. 01693, Chem-Impex), Gentamicin sulfate (Cat. No. G4918, Sigma Aldrich).
# Microbial strains. Enterococcus faecalis DSM 2570, Klebsiella pneumoniae DSM 26371, Acinetobacter baumannii DSM 105126, Enterobacter cloacae 3MRGN (clinical bronchial aspirate isolate).
# Culture media and equipment. BBL™ Mueller Hinton Broth 2 (Lot. BCBW1143, Cat. No. 70192, Sigma); Trypcase Soy Blood-agar plates (Cat. No. 43001, Biomérieux); Cryoinstant (contains 15% glycerol; Cat. No. 822070ZA, VWR International); GasPak™ EZ Standard Incubation Container (Cat. No. 260671, Becton Dickinson); GasPak™ EZ Campy Container System Sachets (Cat. No. 260680, Becton Dickinson); 96-well deep well plate, 1 mL (Cat. No. 0030506.200, Eppendorf); Plate lid (Cat. No. 0030131.525, Eppendorf); 96-well plate, F-bottom (Cat. No. 260860, Nunc); Incubator (Sartorius Certomat BS-1); Laminar flow (Heraeus HS12); UV/VIS meter (Perkin Elmer Lambda Bio+); Platereader (Tecan Infinite M200 Pro).
# Compound preparation. Compounds were prepared in MH2 media at a concentration of 5 mM and stored at 4° C. For testing, solutions of 128 μM were prepared in MH2, for tests against E. faecalis a solution of 512 μM was prepared. Out of these working solutions, 400 μL was transferred to wells in the first column of 96-well deep well plates. Each compound was transferred in triplicate. Plates were previously filled with 200 μL of MH2 media in all wells except for the wells in the first column. After compound and antibiotic addition, the compounds were serial two-fold diluted by transferring 200 μL from the first to the second column, then from the second to the third column and so on. Finally, 200 μL was removed from the last column.
# Inoculum preparation. Microorganisms used were all revived from 15% glycerol storage in Croinstant tubes at −28° C. by plating them on blood agar plates. A. baumanni, and E. cloacae were grown aerobically at 37° C., E. faecalis was grown microaerophilically at 37° C., and K. pneumoniae was grown aerobically at 37° C. Plates were stored at 4° C. for up to two weeks, after which new plates were prepared from −28° C. A single colony was inoculated in MH2 media and grown at 37° C. and 200 rpm to an optical density (measured by UV/Vis spectroscopy) of 0.6-0.8 at 600 nm. Out of these suspensions, actual inoculums were prepared by diluting them to an optical density of 0.1 in MH2 media. From these inoculums, 200 μL was transferred to each well, resulting in a final compound concentration range of 64 μM-31.3 nM for, K. pneumoniae, A. baumanni, and E. cloacae, and 256 μM-125 nM for E. faecalis. Plates inoculated with E. faecalis were placed inside a GasPak™ Container System with GasPak™ Campy Container System sachets. All plates were incubated at 200 rpm for 18 h under the microorganism culturing conditions mentioned above.
# MIC determination. After 18 h of growth, 200 μL was transferred to a 96-well F-bottom plate. The optical density was determined by a plate reader at 600 nm, with 10 s shaking before reading. Triplicate measurements were averaged, and a growth curve was plotted in Excel. The first column in which the growth reached half the value of maximum growth was determined as the MIC50 value for that particular compound.
# MIC50. The MIC50 of a compound was assigned at which the bacterial growth reached half the value of maximum growth.
row,Compound,MIC50
1,"NCC[C@H](O)C(=O)N[C@@H]1CC(N)[C@@H](O[C@H]2OC(CN)[C@@H](O)CC2N)[C@H](F)C1OC1O[C@H](CO)[C@@H](O)C(N)[C@H]1O (stereo partly shown) [ABX5024, Tobra-AHB-F]",1 µM
2,"NCCC(O)C(=O)NC1CC(N)C(OC2OC(CN)C(O)C(O)C2N)C(F)C1OC1OC(CO)C(O)C(N)C1O (stereo not shown) [ABX4007, KanaB-AHB-F]",1 to 2 µM
3,"N=C(N)NC1[C@@H](O)C(OC2[C@@H](F)[C@H](O[C@H]3OC(CN)[C@@H](O)[C@H](O)C3N)C(N)C[C@H]2NC(=O)[C@@H](O)CCN)O[C@H](CO)[C@H]1O (stereo partly shown) [ABX4006, KanaB-AHB-F-Gua]",0.25 to 0.5 µM
4,"N=C(N)N[C@@H]1[C@@H](O)[C@@H](O[C@@H]2[C@@H](O)[C@H](O[C@H]3O[C@H](CN)[C@@H](O)[C@@H](O)[C@H]3N)[C@@H](N)C[C@H]2NC(=O)[C@@H](O)CCN)O[C@H](CO)[C@H]1O [ABX4005, 3′Epi-KanaB-AHB-Gua]",4 to 8 µM
5,"NCCC(O)C(=O)NC1CC(N)C(OC2OC(CN)C(O)C(O)C2N)C(O)C1OC1OC(CO)C(O)C(N)C1O (stereo not shown) [ABX4001, KanaB-AHB]",2 µM
6,"NCC[C@H](O)C(=O)N[C@@H]1CC(N)[C@@H](O[C@H]2OC(CN)[C@@H](O)[C@@H](O)C2N)[C@H](F)C1OC1O[C@H](CO)[C@@H](O)C(N)[C@H]1O (stereo partly drawn) [ABX4003, 3′Epi-KanaB-AHB-F]",4 µM
7,"N=C(N)NC1[C@@H](O)C(OC2[C@@H](O)[C@H](O[C@H]3OC(CN)[C@@H](O)CC3N)C(N)C[C@H]2NC(=O)[C@@H](O)CCN)O[C@H](CO)[C@H]1O (stereo partly shown) [ABX5005, Tobra-AHB-Gua]",1 µM
8,"NCCC(O)C(=O)NC1CC(N)C(OC2OC(CN)C(O)C(O)C2O)C(F)C1OC1OC(CO)C(O)C(N)C1O (stereo not drawn) [ABX3005, 3′Epi-KanaA-AHB-F]",4 µM
9,"N=C(N)NC1[C@@H](O)C(OC2[C@@H](O)[C@H](O[C@H]3OC(CN)[C@@H](O)[C@H](O)C3N)C(N)C[C@H]2NC(=O)[C@@H](O)CCN)O[C@H](CO)[C@H]1O (stereo partly shown) [ABX4009, KanaB-AHB-Gua]",2 µM

# Same assay, conditions: Enterobacter cloacae, E. Cloacae clinical isolate; read-out: MIC 50
row,Compound,MIC50
1,"N=C(NCCO)NC1[C@@H](O)C(OC2[C@@H](F)[C@H](O[C@H]3OC(CN)[C@@H](O)CC3N)C(N)C[C@H]2NC(=O)[C@@H](O)CCN)O[C@H](CO)[C@H]1O (stereo partly shown) [ABX5029, Tobra-AHB-F-Gua 2-hydroxy-ethyl]",1 µM
2,"N=C(NC[C@H]1CNCCO1)NC1[C@@H](O)C(OC2[C@@H](F)[C@H](O[C@H]3OC(CN)[C@@H](O)CC3N)C(N)C[C@H]2NC(=O)[C@@H](O)CCN)O[C@H](CO)[C@H]1O (stereo partly drawn) [ABX5043, Tobra-AHB-F-Gua (R) morpholin-2-yl methyl]",0.25 µM
3,"N=C(NCc1ccncc1)NC1[C@@H](O)C(OC2[C@@H](F)[C@H](O[C@H]3OC(CN)[C@@H](O)CC3N)C(N)C[C@H]2NC(=O)[C@@H](O)CCN)O[C@H](CO)[C@H]1O (stereo partly shown) [ABX5048, Tobra-AHB-F-Gua pyridin-4-yl methyl]",1 µM
4,"NCC[C@H](O)C(=O)N[C@@H]1C[C@H](N)[C@@H](O[C@H]2O[C@H](CN)[C@@H](O)[C@H](O)[C@H]2O)[C@H](O)[C@H]1O[C@H]1O[C@H](CO)[C@@H](O)[C@H](N)[C@H]1O [Amikacin, amikacin, reference compound]",2 µM
5,"N=C(NC[C@@H]1CCNC1)NC1[C@@H](O)C(OC2[C@@H](F)[C@H](O[C@H]3OC(CN)[C@@H](O)CC3N)C(N)C[C@H]2NC(=O)[C@@H](O)CCN)O[C@H](CO)[C@H]1O (stereo partly drawn) [ABX5039, Tobra-AHB-F-Gua (R) pyrrolidine-3-ylmethyl]",0.25 µM
6,"N=C(NCC1CCOC1)NC1[C@@H](O)C(OC2[C@@H](F)[C@H](O[C@H]3OC(CN)[C@@H](O)CC3N)C(N)C[C@H]2NC(=O)[C@@H](O)CCN)O[C@H](CO)[C@H]1O (stereo partly shown) [ABX5051, Tobra-AHB-F-Gua tetrahydrofuran-3-yl methyl]",1 µM
7,"C[C@@H](N)CCNC(=N)NC1[C@@H](O)C(OC2[C@@H](F)[C@H](O[C@H]3OC(CN)[C@@H](O)CC3N)C(N)C[C@H]2NC(=O)[C@@H](O)CCN)O[C@H](CO)[C@H]1O (stereo partly drawn) [ABX5047, Tobra-AHB-F-Gua (R) 3-amino-butyl]",0.25 to 0.5 µM
8,"N=C(N)NC1[C@@H](O)C(OC2[C@@H](F)[C@H](O[C@H]3OC(CNCCO)[C@@H](O)CC3N)C(N)C[C@H]2NC(=O)[C@@H](O)CCN)O[C@H](CO)[C@H]1O (stereo partly shown) [ABX5045, 6N-2-hydroxy-ethyl-Tobra-AHB-F-Gua]",1 µM
9,"N=C(NC[C@@H]1CCCN1)NC1[C@@H](O)C(OC2[C@@H](F)[C@H](O[C@H]3OC(CN)[C@@H](O)CC3N)C(N)C[C@H]2NC(=O)[C@@H](O)CCN)O[C@H](CO)[C@H]1O (stereo partly drawn) [ABX5026, Tobra-AHB-F-Gua (S) pyrrolidine-2-yl-methyl]",0.25 µM
10,"CNCCNC(=N)NC1[C@@H](O)C(OC2[C@@H](F)[C@H](O[C@H]3OC(CN)[C@@H](O)CC3N)C(N)C[C@H]2NC(=O)[C@@H](O)CCN)O[C@H](CO)[C@H]1O (stereo partly shown) [ABX5038, Tobra-AHB-F-Gua 2-(methylamino)ethyl]",0.5 µM
11,"N=C(NCC1CCCO1)NC1[C@@H](O)C(OC2[C@@H](F)[C@H](O[C@H]3OC(CN)[C@@H](O)CC3N)C(N)C[C@H]2NC(=O)[C@@H](O)CCN)O[C@H](CO)[C@H]1O (stereo partly shown) [ABX5046, Tobra-AHB-F-Gua tetrahydrofuran-2-yl methyl]",1 µM
12,"N=C(NC[C@@H]1CNCCO1)NC1[C@@H](O)C(OC2[C@@H](F)[C@H](O[C@H]3OC(CN)[C@@H](O)CC3N)C(N)C[C@H]2NC(=O)[C@@H](O)CCN)O[C@H](CO)[C@H]1O (stereo partly drawn) [ABX5040, Tobra-AHB-F-Gua (S) morpholin-2-yl methyl]",0.25 µM
13,"N=C(NCc1cnc[nH]1)NC1[C@@H](O)C(OC2[C@@H](F)[C@H](O[C@H]3OC(CN)[C@@H](O)CC3N)C(N)C[C@H]2NC(=O)[C@@H](O)CCN)O[C@H](CO)[C@H]1O (stereo partly shown) [ABX5050, Tobra-AHB-F-Gua imidazol-5-yl methyl]",1 to 2 µM
14,"N=C(NCCCO)NC1[C@@H](O)C(OC2[C@@H](F)[C@H](O[C@H]3OC(CN)[C@@H](O)CC3N)C(N)C[C@H]2NC(=O)[C@@H](O)CCN)O[C@H](CO)[C@H]1O (stereo partly shown) [ABX5041, Tobra-AHB-F-Gua 3-hydroxy-propyl]",1 µM
15,"N=C(N)NC1[C@@H](O)C(OC2[C@@H](F)[C@H](O[C@H]3OC(CN)[C@@H](O)[C@H](O)C3O)C(N)C[C@H]2NC(=O)[C@@H](O)CCN)O[C@H](CO)[C@H]1O (stereo partly drawn) [ABX3003, 3′epi-KanaA-AHB-F-Gua]",1 to 2 µM
16,"N=C(NCCCN)NC1[C@@H](O)C(OC2[C@@H](F)[C@H](O[C@H]3OC(CN)[C@@H](O)CC3N)C(N)C[C@H]2NC(=O)[C@@H](O)CCN)O[C@H](CO)[C@H]1O (stereo partly shown) [ABX5030, Tobra-AHB-F-Gua-3-amino-propyl]",1 µM
17,"N=C(N)NC1C(O)[C@@H](CO)OC(OC2C(F)[C@H](O[C@H]3OC(CN)[C@@H](O)CC3N)C(N)C[C@H]2NC(=O)[C@@H](O)CCN)[C@@H]1O (stereo partly shown) [ABX5006, Tobra-AHB-F-Gua]",0.25 to 0.5 µM
18,"N=C(NCCN)NC1C(O)[C@@H](CO)OC(OC2C(F)[C@H](O[C@H]3OC(CN)[C@@H](O)CC3N)C(N)C[C@H]2NC(=O)[C@@H](O)CCN)[C@@H]1O (stereo partly shown) [ABX5020, Tobra-AHB-F-Gua-2-amino-ethyl]",0.5 µM
19,"N=C(NCC1CC1)NC1[C@@H](O)C(OC2[C@@H](F)[C@H](O[C@H]3OC(CN)[C@@H](O)CC3N)C(N)C[C@H]2NC(=O)[C@@H](O)CCN)O[C@H](CO)[C@H]1O (stereo partly shown) [ABX5027, Tobra-AHB-F-Gua cyclopropylmethyl]",0.5 µM
